{
  "source": "PubChem BioAssay AID2060906",
  "about": "(Molecular Pharmacology Branch, DTP, NCI, 2025);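 note: spheroids exposed to compounds for seven days before readout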;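 for viability, T/C: luminescence viability expressed relative to DMSO vehicle wells set as 100%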",
  "system": "485176-168-R4-J1-PDC complex spheroid growth",
  "assay": "Anticancer human tumor 485176-168-R4-J1-PDC patient-derived pancreatic adenocarcinoma cell line growth inhibition [RAS]",
  "conditions": "for IC50: curve of first compound; for viability, T/C: stronger effect = lower value",
  "summary_of_the_method": "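Tumour cells grown as complex spheroids with HUVEC endothelial cells and mesenchymal stem cells, treated with RAS pathway inhibitor combinations. Each agent spans half-log steps from near clinical Cmax, or 10 microM where Cmax is unknown.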",
  "data": [
    {"smiles": "Nc1ccn(C2OC(CO)C(O)C2(F)F)c(=O)n1", "note": "(centres undefined) + CCn1c(-c2cc(N3CCN(C)CC3)cnc2C(C)OC)c2c3cc(ccc31)-c1csc(n1)CC(NC(=O)C1CC1C)C(=O)N1CCCC(N1)C(=O)OCC(C)(C)C2", "values": [
      {"measurement": "IC50", "setting": "second compound 0.000949 µM", "value": 17, "unit": "nM"},
      {"measurement": "IC50", "setting": "second compound 0.003 µM", "value": 17.4, "unit": "nM"},
      {"measurement": "IC50", "setting": "second compound 0.00949 µM", "value": 18.2, "unit": "nM"},
      {"measurement": "IC50", "setting": "second compound 0.03 µM", "value": 12.5, "unit": "nM"},
      {"measurement": "IC50", "setting": "second compound 0.0949 µM", "value": 14.4, "unit": "nM"},
      {"measurement": "IC50", "setting": "second compound 0.3 µM", "value": 19.1, "unit": "nM"},
      {"measurement": "viability, T/C", "setting": "second compound 0.000949 µM, first compound 0.00316 µM", "value": 100, "unit": "%"},
      {"measurement": "viability, T/C", "setting": "second compound 0.000949 µM, first compound 0.01 µM", "value": 73.4, "unit": "%"},
      {"measurement": "viability, T/C", "setting": "second compound 0.000949 µM, first compound 0.0316 µM", "value": 23.1, "unit": "%"},
      {"measurement": "viability, T/C", "setting": "second compound 0.000949 µM, first compound 0.1 µM", "value": 9.57, "unit": "%"},
      {"measurement": "viability, T/C", "setting": "second compound 0.000949 µM, first compound 0.316 µM", "value": 11.2, "unit": "%"},
      {"measurement": "viability, T/C", "setting": "second compound 0.000949 µM, first compound 1 µM", "value": 11.5, "unit": "%"},
      {"measurement": "viability, T/C", "setting": "second compound 0.003 µM, first compound 0.00316 µM", "value": 94, "unit": "%"},
      {"measurement": "viability, T/C", "setting": "second compound 0.003 µM, first compound 0.01 µM", "value": 80.6, "unit": "%"},
      {"measurement": "viability, T/C", "setting": "second compound 0.003 µM, first compound 0.0316 µM", "value": 17.1, "unit": "%"},
      {"measurement": "viability, T/C", "setting": "second compound 0.003 µM, first compound 0.1 µM", "value": 6.87, "unit": "%"},
      {"measurement": "viability, T/C", "setting": "second compound 0.003 µM, first compound 0.316 µM", "value": 8.05, "unit": "%"},
      {"measurement": "viability, T/C", "setting": "second compound 0.003 µM, first compound 1 µM", "value": 13.2, "unit": "%"},
      {"measurement": "viability, T/C", "setting": "second compound 0.00949 µM, first compound 0.00316 µM", "value": 79.7, "unit": "%"},
      {"measurement": "viability, T/C", "setting": "second compound 0.00949 µM, first compound 0.01 µM", "value": 86.2, "unit": "%"},
      {"measurement": "viability, T/C", "setting": "second compound 0.00949 µM, first compound 0.0316 µM", "value": 19.7, "unit": "%"},
      {"measurement": "viability, T/C", "setting": "second compound 0.00949 µM, first compound 0.1 µM", "value": 7.74, "unit": "%"},
      {"measurement": "viability, T/C", "setting": "second compound 0.00949 µM, first compound 0.316 µM", "value": 10.7, "unit": "%"},
      {"measurement": "viability, T/C", "setting": "second compound 0.00949 µM, first compound 1 µM", "value": 12, "unit": "%"},
      {"measurement": "viability, T/C", "setting": "second compound 0.03 µM, first compound 0.00316 µM", "value": 97.9, "unit": "%"},
      {"measurement": "viability, T/C", "setting": "second compound 0.03 µM, first compound 0.01 µM", "value": 58.2, "unit": "%"},
      {"measurement": "viability, T/C", "setting": "second compound 0.03 µM, first compound 0.0316 µM", "value": 15.4, "unit": "%"},
      {"measurement": "viability, T/C", "setting": "second compound 0.03 µM, first compound 0.1 µM", "value": 12.6, "unit": "%"},
      {"measurement": "viability, T/C", "setting": "second compound 0.03 µM, first compound 0.316 µM", "value": 12.6, "unit": "%"},
      {"measurement": "viability, T/C", "setting": "second compound 0.03 µM, first compound 1 µM", "value": 11.5, "unit": "%"},
      {"measurement": "viability, T/C", "setting": "second compound 0.0949 µM, first compound 0.00316 µM", "value": 102, "unit": "%"},
      {"measurement": "viability, T/C", "setting": "second compound 0.0949 µM, first compound 0.01 µM", "value": 63.8, "unit": "%"},
      {"measurement": "viability, T/C", "setting": "second compound 0.0949 µM, first compound 0.0316 µM", "value": 20.7, "unit": "%"},
      {"measurement": "viability, T/C", "setting": "second compound 0.0949 µM, first compound 0.1 µM", "value": 9.33, "unit": "%"},
      {"measurement": "viability, T/C", "setting": "second compound 0.0949 µM, first compound 0.316 µM", "value": 11.3, "unit": "%"},
      {"measurement": "viability, T/C", "setting": "second compound 0.0949 µM, first compound 1 µM", "value": 7.79, "unit": "%"},
      {"measurement": "viability, T/C", "setting": "second compound 0.3 µM, first compound 0.00316 µM", "value": 73, "unit": "%"},
      {"measurement": "viability, T/C", "setting": "second compound 0.3 µM, first compound 0.01 µM", "value": 80.2, "unit": "%"},
      {"measurement": "viability, T/C", "setting": "second compound 0.3 µM, first compound 0.0316 µM", "value": 29.2, "unit": "%"},
      {"measurement": "viability, T/C", "setting": "second compound 0.3 µM, first compound 0.1 µM", "value": 9.97, "unit": "%"},
      {"measurement": "viability, T/C", "setting": "second compound 0.3 µM, first compound 0.316 µM", "value": 9.95, "unit": "%"},
      {"measurement": "viability, T/C", "setting": "second compound 0.3 µM, first compound 1 µM", "value": 11.2, "unit": "%"}
    ]},
    {"smiles": "CCC(CC)c1cc(NC2CCC(N)C2)n2nccc2n1", "note": "(centres undefined) + C#Cc1c(F)ccc2cc(O)cc(-c3ncc4c(N5CC6CCC(C5)N6)nc(OCC56CCCN5CC(F)C6)nc4c3F)c12", "values": [
      {"measurement": "IC50", "setting": "second compound 0.0316 µM", "value": 1360, "unit": "nM"},
      {"measurement": "IC50", "setting": "second compound 0.1 µM", "value": 1480, "unit": "nM"},
      {"measurement": "IC50", "setting": "second compound 0.316 µM", "value": 1610, "unit": "nM"},
      {"measurement": "IC50", "setting": "second compound 1 µM", "value": 1610, "unit": "nM"},
      {"measurement": "IC50", "setting": "second compound 3.16 µM", "value": 1500, "unit": "nM"},
      {"measurement": "IC50", "setting": "second compound 10 µM", "value": 1460, "unit": "nM"},
      {"measurement": "viability, T/C", "setting": "second compound 0.0316 µM, first compound 0.0316 µM", "value": 115, "unit": "%"},
      {"measurement": "viability, T/C", "setting": "second compound 0.0316 µM, first compound 0.1 µM", "value": 80.2, "unit": "%"},
      {"measurement": "viability, T/C", "setting": "second compound 0.0316 µM, first compound 0.316 µM", "value": 102, "unit": "%"},
      {"measurement": "viability, T/C", "setting": "second compound 0.0316 µM, first compound 1 µM", "value": 67.5, "unit": "%"},
      {"measurement": "viability, T/C", "setting": "second compound 0.0316 µM, first compound 3.16 µM", "value": 2.68, "unit": "%"},
      {"measurement": "viability, T/C", "setting": "second compound 0.0316 µM, first compound 10 µM", "value": 0.57, "unit": "%"},
      {"measurement": "viability, T/C", "setting": "second compound 0.1 µM, first compound 0.0316 µM", "value": 105, "unit": "%"},
      {"measurement": "viability, T/C", "setting": "second compound 0.1 µM, first compound 0.1 µM", "value": 106, "unit": "%"},
      {"measurement": "viability, T/C", "setting": "second compound 0.1 µM, first compound 0.316 µM", "value": 95.3, "unit": "%"},
      {"measurement": "viability, T/C", "setting": "second compound 0.1 µM, first compound 1 µM", "value": 74.5, "unit": "%"},
      {"measurement": "viability, T/C", "setting": "second compound 0.1 µM, first compound 3.16 µM", "value": 3.04, "unit": "%"},
      {"measurement": "viability, T/C", "setting": "second compound 0.1 µM, first compound 10 µM", "value": 0.56, "unit": "%"},
      {"measurement": "viability, T/C", "setting": "second compound 0.316 µM, first compound 0.0316 µM", "value": 85.5, "unit": "%"},
      {"measurement": "viability, T/C", "setting": "second compound 0.316 µM, first compound 0.1 µM", "value": 103, "unit": "%"},
      {"measurement": "viability, T/C", "setting": "second compound 0.316 µM, first compound 0.316 µM", "value": 94.1, "unit": "%"},
      {"measurement": "viability, T/C", "setting": "second compound 0.316 µM, first compound 1 µM", "value": 83.5, "unit": "%"},
      {"measurement": "viability, T/C", "setting": "second compound 0.316 µM, first compound 3.16 µM", "value": 2.75, "unit": "%"},
      {"measurement": "viability, T/C", "setting": "second compound 0.316 µM, first compound 10 µM", "value": 0.5, "unit": "%"},
      {"measurement": "viability, T/C", "setting": "second compound 1 µM, first compound 0.0316 µM", "value": 113, "unit": "%"},
      {"measurement": "viability, T/C", "setting": "second compound 1 µM, first compound 0.1 µM", "value": 89.7, "unit": "%"},
      {"measurement": "viability, T/C", "setting": "second compound 1 µM, first compound 0.316 µM", "value": 92, "unit": "%"},
      {"measurement": "viability, T/C", "setting": "second compound 1 µM, first compound 1 µM", "value": 83.1, "unit": "%"},
      {"measurement": "viability, T/C", "setting": "second compound 1 µM, first compound 3.16 µM", "value": 2.71, "unit": "%"},
      {"measurement": "viability, T/C", "setting": "second compound 1 µM, first compound 10 µM", "value": 0.44, "unit": "%"},
      {"measurement": "viability, T/C", "setting": "second compound 3.16 µM, first compound 0.0316 µM", "value": 103, "unit": "%"},
      {"measurement": "viability, T/C", "setting": "second compound 3.16 µM, first compound 0.1 µM", "value": 90.3, "unit": "%"},
      {"measurement": "viability, T/C", "setting": "second compound 3.16 µM, first compound 0.316 µM", "value": 97, "unit": "%"},
      {"measurement": "viability, T/C", "setting": "second compound 3.16 µM, first compound 1 µM", "value": 75.2, "unit": "%"},
      {"measurement": "viability, T/C", "setting": "second compound 3.16 µM, first compound 3.16 µM", "value": 3.48, "unit": "%"},
      {"measurement": "viability, T/C", "setting": "second compound 3.16 µM, first compound 10 µM", "value": 0.51, "unit": "%"},
      {"measurement": "viability, T/C", "setting": "second compound 10 µM, first compound 0.0316 µM", "value": 93.3, "unit": "%"},
      {"measurement": "viability, T/C", "setting": "second compound 10 µM, first compound 0.1 µM", "value": 96.3, "unit": "%"},
      {"measurement": "viability, T/C", "setting": "second compound 10 µM, first compound 0.316 µM", "value": 79, "unit": "%"},
      {"measurement": "viability, T/C", "setting": "second compound 10 µM, first compound 1 µM", "value": 73, "unit": "%"},
      {"measurement": "viability, T/C", "setting": "second compound 10 µM, first compound 3.16 µM", "value": 2.33, "unit": "%"},
      {"measurement": "viability, T/C", "setting": "second compound 10 µM, first compound 10 µM", "value": 0.39, "unit": "%"}
    ]}
  ]
}
